Assay: Model experiments with 99Tc complex kept at pH 1
Type: physicochemical
Settings: complex with 99Tc; kept at pH 1 for days

[O]=[Tc]12(=[O])(=[O])[N]3CC[N]1CC[N]2CC3 [Compound 1, [TcO3(tacn)]^+]
hydrolysis at pH 1: without significant hydrolysis

Source: patent publication US8961924B2, “Metal complexes” (University of Zurich, priority 2008, dated 2015)
